# Assay results from patent US7273884B2, “Method of treating tremors” (Eisai, Inc., priority 2002, dated 2007).
# Read-outs that look alike come from different tables or passages of the source.
# Tests used:
# [1] = Harmaline-induced tremor in rats (tremor monitoring cage, 8-12 Hz vs 0-15 Hz motion); type: in vivo, Sprague-Dawley rats
# Method: Six female Sprague-Dawley rats were treated with i.p. saline and placed in a tremor monitoring cage for 30 minutes of baseline recording. They then received 10 mg/kg harmaline i.p. to induce tremor. Recording of the harmaline-induced tremor began 15 minutes after the harmaline injection and continued for up to 2½ hours.
# A transducer connected to the cage floor recorded motion, which was processed by Fourier transform and spectral analysis. Motion at 8-12 Hz (the range in which the tremor occurs) was compared to the full spectrum of motion recorded (0-15 Hz).
# To analyze the reduction of tremor caused by treatment agents, a Convuls-1 pressure sensitive transducer system is used. Convuls-1 is designed to objectively quantify convulsive or tremorous activity in small laboratory animals. An unrestrained animal is placed within a chamber that resides upon a sensing platform. […] The static force exerted by the weight of the platform and animal is not recorded. […] Output power is recorded digitally and analyzed for change of frequency and power using the Dataware A/D converted and software.
# The data is analyzed in one minute bins. For each bin, the total power of 0-15 Hz and the total power at 8-12 Hz is calculated. The data is then converted into Excel and the ratio of 8-12 Hz/0-15 Hz power is calculated. […]
# [2] = delivered intraperitoneally; severity dose dependent; cited from earlier work
# [3] = test system: NMDA receptor; details: noncompetitive NMDA channel blocker; cited from earlier work
# [4] = general clinical practice, first line therapy; cited from earlier work
# [5] = test system: dopaminergic and serotonergic neurotransmission; details: in vivo microdialysis; cited from earlier work
# [6] = cats, electrical stimulation of the visual cortex; cited from earlier work
# [7] = Zonisamide treatment of tremor patients at an outpatient neurology clinic; type: in vivo, human
# Method: Zonisamide was used in treatment of patients at an outpatient neurology clinic, which provided the following results. […] For intractable essential tremor, 10 patients (age range: 46 to 82) were identified who were either intolerant to, or failed on, primidone or propranolol therapy. The dosage of zonisamide to these patients was 100 mg to a maximum of 200 mg once daily. The study dose was continued for at least 12 weeks unless discontinued earlier due to side effects.
# [8] = rats; cited from earlier work
# [9] = test system: GABA/benzodiazepine receptor ionophore complex; details: in vitro; does not produce changes in chloride flux; cited from earlier work
# [10] = rats, cortical tungstic acid gel; cited from earlier work
# [11] = test system: rat hippocampal slices; details: 10-30 μg/mL; cited from earlier work
# [12] = test system: cultured mouse spinal cord neurons; details: 10-30 μg/mL; cited from earlier work
# [13] = one patient; treatment with zonisamide, clonazepam and valpolate; cited from earlier work
# [14] = test system: voltage-gated sodium channels; details: in vitro; cited from earlier work
# [15] = patients; cited from earlier work
# [16] = cats, cortical freezing; cited from earlier work
# [17] = test system: T-type Ca2+ currents; details: in vitro; cited from earlier work
# [18] = 50-200 mg/day in addition to anti-Parkinson Disease drug; cited from earlier work
# [19] = kindled rat; cited from earlier work
# [20] = patients at outpatient neurology clinic
smiles,measurement,setting,value
COc1ccc2c3c([nH]c2c1)C(C)=NCC3 [harmaline],stability of tremor-inducing effect,"[1]; 10 mg/kg harmaline i.p., female Sprague-Dawley rats",stable for over two hours
same,ratio of 8-12 Hz/0-15 Hz power,[1]; harmaline-treated rats (control rats 15-30%),60-80%
same,effective dose range for tremor induction,[2],10 to 50 mg/kg
C[C@]12N[C@H](Cc3ccccc31)c1ccccc12 [MK-801],tremorogenic actions of harmaline,[3],could block the tremorogenic actions of harmaline
CC(C)NCC(O)COc1cccc2ccccc12 (stereo not drawn) [propranolol],efficacy in ET,[4],proven efficacy in ET
"NS(=O)(=O)Cc1noc2ccccc12 [zonisamide, 1,2-benzisoxazole-3-methanesulfonamide]",dopaminergic and serotonergic neurotransmission,[5],facilitates both dopaminergic and serotonergic neurotransmission
same,duration of cortical focal seizures,[6],reduction in the duration of cortical focal seizures
same,patients responding,[7]; Parkinsonian tremor,two out of four responded
same,quality of life,"[7]; intractable essential tremor responders, 100 mg to 200 mg once daily",reported a better quality of life
same,patients responding by reduction in tremor,"[7]; intractable essential tremor, 10 patients intolerant to or failed on primidone or propranolol, 100 mg to 200 mg once daily, at least 12 weeks",four patients responded by reduction in tremor of greater than 50%
same,patients responding,"[7]; mixed tremor (non-essential, secondary to trauma or multiple sclerosis)",two out of two patients responded
same,patients responding,[7]; multi-infarct-related (2 or more minor strokes) tremor,one out of two patients responded
same,adverse reactions experienced in treatment,[7]; [20],"GI upset, somnolence and skin rash"
same,kidney stones and anhydrosis (lack of sweating),[7]; [20],not encountered
same,oral dose effective in anticonvulsant models,[8],20 mg/kg
same,binding to GABA/benzodiazepine receptor ionophore complex,[9],binds to the GABA/benzodiazepine receptor ionophore complex in an allosteric fashion
same,interictal spikes and secondarily generalized seizures,[10],suppressed both interictal spikes and the secondarily generalized seizures
same,neuronal or glial uptake of [3H]-GABA,[11],without affecting
same,postsynaptic GABA or glutamate responses,[12],without affecting
same,synaptically-driven electrical activity,[12],suppresses synaptically-driven electrical activity
same,symptoms of cortical myoclonic tremor,[13],improved
same,effect on voltage-gated sodium channels,[14],blocks voltage-gated sodium channels
same,tremor developed after administration,[15],two patients developed resting and postural hand tremor
same,interictal spikes and secondarily generalized seizures,[16],suppressed both interictal spikes and the secondarily generalized seizures
same,"effect on voltage-dependent, transient inward calcium currents",[17],"reduces voltage-dependent, transient inward calcium currents"
same,symptoms of patients,[18],showed lessening of symptoms
same,threshold for generalized seizures,[19],increase in threshold for generalized seizures
